In patent US12692253B2, “Antimicrobial compounds and methods” (Curza Global, LLC, priority 2019, dated 2026):

Key:
S. aureus (Sa) = assay: Broth microdilution minimum inhibitory concentration (MIC), CLSI; type: cell-based; conditions: Staphylococcus aureus, growth medium supplemented with sodium bicarbonate, read-out: Sa + bicarb MIC
Summary of the method: (§1)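 CLSI broth microdilution with modification: 8-point two-fold compound dilutions in CAMHB, CAMHB plus 6.25 or 25 mM sodium bicarbonate, or CAMHB plus 0–50% heat-inactivated human serum. Inoculum 5×10^4 CFU/well from log-phase cultures adjusted to 0.5 McFarland; triplicate wells.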

E. coli (Ec) = assay: as above; type: cell-based; conditions: Escherichia coli, growth medium supplemented with sodium bicarbonate, read-out: E. coli + bicarb MIC
Summary of the method: as §1

E. faecalis (Ef) = assay: as above; type: cell-based; conditions: Enterococcus faecalis, growth medium supplemented with sodium bicarbonate, read-out: Ef + bicarb MIC
Summary of the method: as §1

P. aeruginosa (Pa) = assay: as above; type: cell-based; conditions: Pseudomonas aeruginosa, growth medium supplemented with sodium bicarbonate, read-out: Pa MIC + bicarb
Summary of the method: as §1

A. baumannn (Ab) = assay: as above; type: cell-based; conditions: Acinetobacter baumannii, read-out: Ab + bicarb MIC
Summary of the method: as §1

[1] = test system: E. coli S30 extract (bacterial protein synthesis); assay: E. coli S30 extract coupled transcription-translation luciferase assay (inhibition of bacterial protein synthesis); type: biochemical; conditions: class by IC50 or % inhibition @ 1 μM, read-out: S30 IC50 (μM/% inhib.)
Summary of the method: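 Coupled transcription-translation in E. coli S30 circular-DNA extract expressing luciferase from pBESTluc, with 8-point 2-fold compound dilutions; 1 hour at 37 °C, stopped at 4 °C. Luminescence read; % inhibition versus no-inhibitor wells, no-DNA wells as background.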

[2] = molecular target: Rabbit Reticulocyte Lysate (eukaryotic protein synthesis); assay: Rabbit reticulocyte lysate luciferase assay (inhibition of eukaryotic protein synthesis); type: biochemical; conditions: class by IC50 or % inhibition @ 1 μM, read-out: Rabbit reticulocyte IC50 (μM/% inhib.)
Summary of the method: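 In vitro translation of luciferase control RNA in nuclease-treated rabbit reticulocyte lysate with amino acid mixture, compounds in 2-fold serial dilution, 90 minutes at 30° C. Luminescence read after luciferase reagent; % inhibition relative to water no-inhibitor controls, with no-RNA background wells.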

SMILES | MIC (S. aureus (Sa)) | MIC (E. coli (Ec)) | MIC (E. faecalis (Ef)) | MIC (P. aeruginosa (Pa)) | MIC (A. baumannn (Ab)) | IC50 [1] | IC50 [2]
CC(C)(N)C(=O)N1CCN(C(=O)Nc2ccn(-c3cccc(CCN4CC5(CC(N)C5)C4)c3)c(=O)n2)CC1 [Compound 109] | < 8 µg/mL | < 8 µg/mL | > 32 µg/mL | > 32 µg/mL | > 32 µg/mL | < 0.5 µM | ≥ 1 µM
CC(C)(N)C(=O)N1CCN(C(=O)Nc2ccn(-c3cccc(CCN4CCC5(CC4)CC(N)C5)c3)c(=O)n2)CC1 [Compound 110] | < 8 µg/mL | < 8 µg/mL | 8 to 32 µg/mL | > 32 µg/mL | > 32 µg/mL | 0.5 to 1 µM | ≥ 1 µM
CC(Cc1ccc(-n2ccc(NC(=O)N3CCN(C(=O)C(C)(C)N)CC3)nc2=O)cc1)N1CC2(CCC2N)C1 (stereo not drawn) [Compound 111] | < 8 µg/mL | < 8 µg/mL | 8 to 32 µg/mL | > 32 µg/mL | > 32 µg/mL | ≥ 1 µM | ≥ 1 µM
CC(Cc1ccc(-n2ccc(NC(=O)N3CCN(C(=O)C(C)(C)N)CC3)nc2=O)cc1)N1CC2(CC(N)C2)C1 (stereo not drawn) [Compound 112] | < 8 µg/mL | < 8 µg/mL | 8 to 32 µg/mL | > 32 µg/mL | > 32 µg/mL | 0.5 to 1 µM | ≥ 1 µM
CC(C)(N)C(=O)N1CCN(C(=O)Nc2ccn(-c3cccc(CCN4CC5CCC(C4)C5N)c3)c(=O)n2)CC1 (stereo not drawn) [Compound 113] | > 32 µg/mL | < 8 µg/mL | > 32 µg/mL | > 32 µg/mL | > 32 µg/mL | ≥ 1 µM | ≥ 1 µM
CC(Cc1ccc(-n2ccc(NC(=O)N3CCN(C(=O)C(C)(C)N)CC3)nc2=O)cc1)N1CCC2(CC1)CC(N)C2 (stereo not drawn) [Compound 114] | < 8 µg/mL | < 8 µg/mL | < 8 µg/mL | 8 to 32 µg/mL | 8 to 32 µg/mL | < 0.5 µM | ≥ 1 µM
CC(Cc1ccc(-n2ccc(NC(=O)N3CCN(C(=O)[C@@](C)(N)CO)CC3)nc2=O)cc1)N1CCC2(CC1)CC(N)C2 (stereo partly drawn) [Compound 115] | < 8 µg/mL | < 8 µg/mL | < 8 µg/mL | > 32 µg/mL | > 32 µg/mL | < 0.5 µM | ≥ 1 µM
CC(C)(N)C(=O)N1CCN(C(=O)Nc2ccn(-c3ccc(CCN4C[C@@H]5[C@@H](CN)[C@@H]5C4)cc3)c(=O)n2)CC1 [Compound 116] | < 8 µg/mL | < 8 µg/mL | 8 to 32 µg/mL | 8 to 32 µg/mL | < 8 µg/mL | < 0.5 µM | ≥ 1 µM
CC(C)(N)C(=O)N1CCN(C(=O)Nc2ccn(-c3ccc(CCN4CC5CC5(CN)C4)cc3)c(=O)n2)CC1 (stereo not drawn) [Compound 117] | < 8 µg/mL | < 8 µg/mL | < 8 µg/mL | 8 to 32 µg/mL | 8 to 32 µg/mL | < 0.5 µM | ≥ 1 µM
C[C@@](N)(CO)C(=O)N1CCN(C(=O)Nc2ccn(-c3ccc(CCN4CC5CC5(CN)C4)cc3)c(=O)n2)CC1 (stereo partly drawn) [Compound 120] | < 8 µg/mL | < 8 µg/mL | 8 to 32 µg/mL | 8 to 32 µg/mL | > 32 µg/mL | < 0.5 µM | ≥ 1 µM
CC(CN1C[C@@H]2[C@@H](CN)[C@@H]2C1)c1ccc(-n2ccc(NC(=O)N3CCN(C(=O)C(C)(C)N)CC3)nc2=O)cc1 (stereo partly drawn) [Compound 121] | < 8 µg/mL | < 8 µg/mL | 8 to 32 µg/mL | 8 to 32 µg/mL | > 32 µg/mL | 0.5 to 1 µM | ≥ 1 µM
CC(Cc1ccc(-n2ccc(NC(=O)N3CCN(C(=O)C(C)(C)N)CC3)nc2=O)cc1)N1C[C@@H]2[C@@H](CN)[C@@H]2C1 (stereo partly drawn) [Compound 122] | < 8 µg/mL | < 8 µg/mL | < 8 µg/mL | < 8 µg/mL | 8 to 32 µg/mL | < 0.5 µM | ≥ 1 µM
